Data as given in patent US11786534B2 (TAIHO PHARMACEUTICAL CO., LTD., priority 2019, dated 2023).

Key:
Assay type in all cases: biochemical
human EGFR (WT) = biological target: T1, human EGFR (WT) (Homo sapiens, UniProt P00533); assay: Inhibitory activity against EGFR (WT) kinase
T1 construct: purchased Carna Biosciences Inc., Japan
Protocol: The compounds of the present invention were measured for their inhibitory activity nainst EGFR (WT) kinase activity.
The materials, measurement procedures and data analysis method used in this test. are substantially the same as those shown in the section “Measurement of inhibitory activity against EGFR (d746-750/T790M/C797S) kinase.” However, among the materials, the kinase protein used was a purified recombinant human EGFR (WT) purchased from Carna Biosciences Inc., Japan. In the measurement procedures, the final concentration of ATP was set to 1.5 μM. Finally, data analysis was conducted to determine the IC50 value (nM) of each compound against EGFR (WT).
In accordance with the same procedures as shown in 5) in Test Example 1, the compounds of the present invention were measured for their inhibitory activity against. EGFR (WT) kinase activity.

[1] = biological target: T2, human EGFR (d746-750/C797S) (Homo sapiens, UniProt P00533, C797S/DEL746-750); assay: Inhibitory activity against EGFR (d746-750/C797S) kinase
T2 construct: purchased SignalChem
T2 sequence (P00533 with tags, fused parts or gaps DEL746-750/C797S): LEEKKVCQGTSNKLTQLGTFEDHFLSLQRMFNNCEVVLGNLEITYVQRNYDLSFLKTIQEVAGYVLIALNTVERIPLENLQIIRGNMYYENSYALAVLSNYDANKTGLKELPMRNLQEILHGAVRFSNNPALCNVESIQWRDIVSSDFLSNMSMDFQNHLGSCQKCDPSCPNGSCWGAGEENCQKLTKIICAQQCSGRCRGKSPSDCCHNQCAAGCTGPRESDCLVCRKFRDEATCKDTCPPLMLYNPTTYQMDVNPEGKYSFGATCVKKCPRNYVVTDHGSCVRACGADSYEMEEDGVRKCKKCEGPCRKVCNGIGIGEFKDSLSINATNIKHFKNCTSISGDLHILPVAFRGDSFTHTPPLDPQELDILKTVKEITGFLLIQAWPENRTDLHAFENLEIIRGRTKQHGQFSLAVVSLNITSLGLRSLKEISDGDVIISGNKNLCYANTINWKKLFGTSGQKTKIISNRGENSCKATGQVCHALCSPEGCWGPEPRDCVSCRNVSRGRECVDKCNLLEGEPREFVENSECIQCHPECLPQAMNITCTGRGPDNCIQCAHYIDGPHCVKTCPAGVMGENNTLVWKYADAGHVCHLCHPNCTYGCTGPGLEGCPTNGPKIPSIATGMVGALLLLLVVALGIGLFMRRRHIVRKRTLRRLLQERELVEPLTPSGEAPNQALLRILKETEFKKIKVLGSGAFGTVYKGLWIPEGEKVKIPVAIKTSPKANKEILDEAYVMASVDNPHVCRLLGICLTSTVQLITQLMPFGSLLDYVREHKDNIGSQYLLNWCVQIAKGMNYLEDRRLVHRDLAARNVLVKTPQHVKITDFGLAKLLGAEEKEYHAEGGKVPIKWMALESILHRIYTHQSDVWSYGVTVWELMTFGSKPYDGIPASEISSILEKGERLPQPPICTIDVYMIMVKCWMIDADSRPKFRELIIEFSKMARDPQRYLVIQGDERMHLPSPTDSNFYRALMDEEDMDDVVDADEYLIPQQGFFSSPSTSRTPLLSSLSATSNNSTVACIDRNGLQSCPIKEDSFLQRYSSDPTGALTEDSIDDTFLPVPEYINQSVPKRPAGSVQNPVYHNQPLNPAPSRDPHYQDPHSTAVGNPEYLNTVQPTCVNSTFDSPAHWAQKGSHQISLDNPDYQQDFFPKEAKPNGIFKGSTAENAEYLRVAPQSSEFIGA
Protocol: 3) Measurement of inhibitory activity against EGFR (d746-750/C797S) kinase
The compounds of the present invention were measured for their inhibitory activity against EGFR (d746-750/C797S) kinase activity.
The materials, measurement procedures and data analysis method used in this test are substantially the same as those shown in the section “Measurement of inhibitory activity aiainst EGFR (d746-750/T790M/C797S) kinase.” However, among the materials, the kinase protein used was a purified recombinant human EGFR (d746-750/C797S) protein purchased from SignalChem, while the kinase reaction buffer used was 13.5 mM Tris (pH 7.5) containing 2 mM dithiothreitol and 0.009% Tween-20. In the measurement procedures, the final concentration of ATP was set to 14 μM, the final concentration of maganesium chloride was set to 20 mM, the final concentration of manganese chloride was set to 12.5 mM, the incubation time for kinase reaction was set to 60 minutes, and the final concentration of EDTA used to stop the kinase reaction was set to 40 mM. Finally, data analysis was conducted to determine to IC50 value (nM) of each compound against EGFR (d746-750/C797S).
In accordance with the same procedures as shown in 3) in Test Example 1, the compounds of the present invention were measured for their inhibitory activity against EGFR (d746-750/C797S) kinase activity.

human EGFR (L858R/C797S) = biological target: T3, human EGFR (L858R/C797S) (Homo sapiens, UniProt P00533, C797S/L858R); assay: Inhibitory activity against EGFR (L858R/C797S) kinase
T3 construct: purchased SignalChem
T3 sequence (P00533 25-1210 C797S/L858R): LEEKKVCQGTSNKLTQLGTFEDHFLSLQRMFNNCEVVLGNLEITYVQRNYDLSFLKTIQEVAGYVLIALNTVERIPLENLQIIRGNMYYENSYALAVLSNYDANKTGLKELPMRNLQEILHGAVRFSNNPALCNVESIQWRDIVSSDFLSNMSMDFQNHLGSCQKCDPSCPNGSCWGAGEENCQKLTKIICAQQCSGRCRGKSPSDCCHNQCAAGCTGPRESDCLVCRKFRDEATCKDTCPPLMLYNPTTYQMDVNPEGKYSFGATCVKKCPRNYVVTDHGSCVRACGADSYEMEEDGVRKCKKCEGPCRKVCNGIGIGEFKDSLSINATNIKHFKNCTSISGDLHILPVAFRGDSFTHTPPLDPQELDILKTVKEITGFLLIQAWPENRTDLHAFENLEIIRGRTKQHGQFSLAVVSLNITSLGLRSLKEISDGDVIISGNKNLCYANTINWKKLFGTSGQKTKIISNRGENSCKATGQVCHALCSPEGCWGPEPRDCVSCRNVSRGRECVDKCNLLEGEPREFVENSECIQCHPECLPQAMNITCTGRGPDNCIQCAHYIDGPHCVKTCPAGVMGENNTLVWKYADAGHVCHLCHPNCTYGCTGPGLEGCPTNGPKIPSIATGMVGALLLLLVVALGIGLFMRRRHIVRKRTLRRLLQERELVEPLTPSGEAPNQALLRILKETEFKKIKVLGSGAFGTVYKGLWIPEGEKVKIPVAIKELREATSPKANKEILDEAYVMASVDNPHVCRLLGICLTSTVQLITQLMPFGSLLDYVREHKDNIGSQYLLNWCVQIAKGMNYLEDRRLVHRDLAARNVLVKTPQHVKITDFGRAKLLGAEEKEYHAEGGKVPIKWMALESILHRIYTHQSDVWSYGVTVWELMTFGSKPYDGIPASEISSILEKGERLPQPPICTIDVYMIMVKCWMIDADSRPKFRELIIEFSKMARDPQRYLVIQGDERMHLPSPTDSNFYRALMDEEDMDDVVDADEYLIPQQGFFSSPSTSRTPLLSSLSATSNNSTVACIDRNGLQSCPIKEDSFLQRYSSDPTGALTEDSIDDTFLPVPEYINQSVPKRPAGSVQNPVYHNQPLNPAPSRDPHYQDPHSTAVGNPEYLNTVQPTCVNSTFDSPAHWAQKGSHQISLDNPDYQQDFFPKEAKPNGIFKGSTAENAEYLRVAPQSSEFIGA
Protocol: 4) Measurement of inhibitory activity against EGFR (L858R/C797S) kinase
The compounds of the present invention were measured for their inhibitory activity aeainst EGFR (L858R/C797S) kinase activity.
The materials, measurement procedures and data analysis method used in this test are stibstantially the same as those shown in the section “Measurement of inhibitory activity against EGFR (d746-750/C797S) kinase.” However, among the materials, the kinase protein used was a purified recombinant human EGFR (C797S/L858R) protein purchased from SignalChem. In the measurement procedures, the final concentration of ATP was set to 4 μM, and the incubation time for kinase reaction was set to 90 minutes. Finally, data analysis was conducted determine the IC50 value (nM) of each compound against EGFR (L858R/C797S).
In accordance with the same procedures as shown in 4) in Test Example 1, the compounds of the present invention were measured for their inhibitor activity against. EGFR (L858R/C797S) kinase activity.

[2] = biological target: T4, human EGFR (d746-750/T790M/C797S) (Homo sapiens, UniProt P00533, C797S/DEL746-750/T790M); assay: Inhibitory activity against EGFR (d746-750/T790M/C797S) kinase
T4 construct: made in house; host or cells: Sf9 insect cells, baculovirus
T4 sequence (P00533 with tags, fused parts or gaps DEL746-750/T790M/C797S): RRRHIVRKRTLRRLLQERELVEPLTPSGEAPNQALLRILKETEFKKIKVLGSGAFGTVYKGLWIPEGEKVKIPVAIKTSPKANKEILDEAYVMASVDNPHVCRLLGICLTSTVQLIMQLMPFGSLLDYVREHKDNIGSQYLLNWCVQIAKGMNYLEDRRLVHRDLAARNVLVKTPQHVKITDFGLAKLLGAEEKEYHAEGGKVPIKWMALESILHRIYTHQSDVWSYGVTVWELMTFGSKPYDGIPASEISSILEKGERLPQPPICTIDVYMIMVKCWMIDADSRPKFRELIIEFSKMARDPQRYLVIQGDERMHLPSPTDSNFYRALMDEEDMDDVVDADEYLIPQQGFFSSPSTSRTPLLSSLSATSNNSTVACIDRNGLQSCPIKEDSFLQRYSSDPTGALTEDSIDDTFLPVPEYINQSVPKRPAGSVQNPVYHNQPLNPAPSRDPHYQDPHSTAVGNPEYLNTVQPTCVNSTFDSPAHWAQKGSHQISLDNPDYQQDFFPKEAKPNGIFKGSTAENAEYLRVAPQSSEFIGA
Protocol: 1) Measurement of inhibitory activity against EGFR (d746-750/T790M/C797S) kinase
The compounds of the above examples and comparative examples were measured for their inhibitory activity against EGFR (d746-750/T790M/C797S) kinase activity. Among the materials required for measurement of this inhibitory activity, the kinase protein (SEQ ID NO: 1) used was prepared as follows: the cytoplasmic domain of human EGFR (d746-750/T790M/C797S) fused at the ammo terminal end with a glutathione-S-transferase (GST) tag was expressed M insect cells (Sf9) by the baculovirus expression system and then purified an a glutathione sepharose column. For use as a substrate peptide, a peptide biotinylated at the N-terminal end (biotin -EEPLYWSFPAKKK) was synthesized by reference to Perkin Elmer LabChip® series reagent FL-Peptide 22.
Procedures for measurement of the inhibitory activity are as follows. First, the compounds of the present invention were each dissolved in dimethyl sulfoxide (DMSO), and their serial dilutions were then prepared with DMSO. Secondly, each compound serial dilution (final concentration of DMSO during kinase reaction: 2.5%) or DMSO (final concentration: 2.5%) was mixed with a solution containing the substrate peptide (final concentration: 250 nM), magnesium chloride (final concentration: 10 mM), manganese chloride (final concentration: 10 mM) and ATP (final concentration: 6 μM) in a kinase reaction buffer (Carna Biosciences Inc., Japan), and the EGFR (d746-750/T790M/C797S) protein was further added thereto, followed by incubation at 25° C. for 120 minutes to cause kinase reaction. To the reaction solution, EDTA was added to give a final concentration of 24 mM to thereby stop the reaction, followed by addition of a phospholylated tyrosine detection solution containing europium-labeled anti-phosphorylated tyrosine antibody PT66 (Perkin Elmer) and SureLight APC-SA (Perkin Elmer). The reaction solution was allowed to stand at room temperature for 2 hours or longer. As a background, DMSO was used instead of each compound solution in .DMSO, and EDIA was added prior to the addition of the EGFR EGFR (d746-750/T790M/C797S) protein, followed by incubation at 25° C. for 120 minutes. The same detection solution was also added to this reaction solution, which was then allowed to stand for 2 hours or longer. Finally, all the test samples were measured with a PHERAstar FS reader (BMG LABTECH) for their fluorescence intensity at two wavelengths of 620 nm and 665 nm upon irradiation with an excitation light of 337 nm wavelength, and the ratio of fluorescence intensities at these two wavelengths was obtained as data for each compound.
Moreover, as control compounds, the above Comparative Example A (Example 3 in WO2013/118817) and Comparative Example B (Example 35 in WO2013/118817) known to have EGFR inhibitory activity were used.
In accordance with the same procedures as shown in 1) in Test Example 1, the compounds of the above examples were measured for their inhibitory activity against EGFR (d746-750/T790M/C797S) kinase activity.

[3] = biological target: T5, human EGFR (L858R/T790M/C797S) (Homo sapiens, UniProt P00533, C797S/L858R/T790M); assay: Inhibitory activity against EGFR (L858R/T790M/C797S) kinase
T5 construct: made in house; host or cells: Sf9 insect cells, baculovirus
T5 sequence (P00533 with tags, fused parts or gaps T790M/C797S/L858R): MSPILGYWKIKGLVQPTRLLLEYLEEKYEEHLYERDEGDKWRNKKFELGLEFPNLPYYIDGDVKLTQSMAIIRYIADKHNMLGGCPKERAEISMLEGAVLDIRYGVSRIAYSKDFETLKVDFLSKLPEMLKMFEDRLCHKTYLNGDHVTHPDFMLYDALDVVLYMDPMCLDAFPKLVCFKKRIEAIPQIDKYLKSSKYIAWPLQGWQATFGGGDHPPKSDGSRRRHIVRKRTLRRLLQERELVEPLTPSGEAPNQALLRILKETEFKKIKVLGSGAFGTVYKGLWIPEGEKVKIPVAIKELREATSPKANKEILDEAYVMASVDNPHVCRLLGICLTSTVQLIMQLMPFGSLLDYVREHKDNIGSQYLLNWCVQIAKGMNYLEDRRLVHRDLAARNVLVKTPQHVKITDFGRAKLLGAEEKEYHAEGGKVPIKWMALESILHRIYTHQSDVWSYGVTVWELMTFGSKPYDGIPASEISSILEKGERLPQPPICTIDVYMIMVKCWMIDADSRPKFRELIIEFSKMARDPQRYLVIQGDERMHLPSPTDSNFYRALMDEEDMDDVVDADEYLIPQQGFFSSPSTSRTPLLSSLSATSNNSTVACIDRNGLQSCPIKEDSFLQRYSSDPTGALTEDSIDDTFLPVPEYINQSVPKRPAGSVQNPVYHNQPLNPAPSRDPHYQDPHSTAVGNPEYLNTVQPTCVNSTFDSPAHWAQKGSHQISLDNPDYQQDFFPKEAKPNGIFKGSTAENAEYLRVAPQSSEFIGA
Protocol: 2) Measurement of inhibitory activity against EGFR (L858R/T790M/C797S) kinase
The compounds of the presein invention were measured for their inhibitory activity against EGFR (L858R/T790M/C797S) kinase activity.
The materials, measurement procedures and data analysis method used in this test are substantially the same as those shown in the section “Measurement of inhibitory activity against EGFR (d746-750/T790M/C797S) kinase.” However, among the materials, the kinase protein (SEQ ID NO: 2) used was prepared as follows: the cytoplasmic domain of human EGFR (L858R/T790M/C797S) fused at the amino terminal end with a GST tag was expressed in insect cells (Sf9) by the baculovirus expression system and then purified on a glutathione sepharose column. In the measurement procedures, the final concentration of ATP was set to 0.5 μM. Finally, data analysis was conducted to determine the IC50 value (nM) of each compound against EGFR (L858R/T790M/C797S).
In accordance with the same procedures as shown in 2) in Test Example 1, the compounds of the present invention were measured for their inhibitory activity against EGFR (L858R/T790M/C797S) kinase activity.

[4] = Test Example 1, Table 6, ATP 1.5 μM
[5] = Test Example 1, Table 4, ATP 14 μM, 60 minutes
[6] = Test Example 1, Table 5, ATP 4 μM, 90 minutes
[7] = Test Example 1, Table 2, ATP 6 μM, 25° C., 120 minutes
[8] = Test Example 1, Table 3, ATP 0.5 μM
[9] = Test Example 3, Table 12; same procedures as 5) in Test Example 1
[10] = Test Example 3, Table 10; same procedures as 3) in Test Example 1
[11] = Test Example 3, Table 11; same procedures as 4) in Test Example 1
[12] = Test Example 3, Table 8; same procedures as 1) in Test Example 1
[13] = Test Example 3, Table 9; same procedures as 2) in Test Example 1

T1 sequence (P00533 25-1210): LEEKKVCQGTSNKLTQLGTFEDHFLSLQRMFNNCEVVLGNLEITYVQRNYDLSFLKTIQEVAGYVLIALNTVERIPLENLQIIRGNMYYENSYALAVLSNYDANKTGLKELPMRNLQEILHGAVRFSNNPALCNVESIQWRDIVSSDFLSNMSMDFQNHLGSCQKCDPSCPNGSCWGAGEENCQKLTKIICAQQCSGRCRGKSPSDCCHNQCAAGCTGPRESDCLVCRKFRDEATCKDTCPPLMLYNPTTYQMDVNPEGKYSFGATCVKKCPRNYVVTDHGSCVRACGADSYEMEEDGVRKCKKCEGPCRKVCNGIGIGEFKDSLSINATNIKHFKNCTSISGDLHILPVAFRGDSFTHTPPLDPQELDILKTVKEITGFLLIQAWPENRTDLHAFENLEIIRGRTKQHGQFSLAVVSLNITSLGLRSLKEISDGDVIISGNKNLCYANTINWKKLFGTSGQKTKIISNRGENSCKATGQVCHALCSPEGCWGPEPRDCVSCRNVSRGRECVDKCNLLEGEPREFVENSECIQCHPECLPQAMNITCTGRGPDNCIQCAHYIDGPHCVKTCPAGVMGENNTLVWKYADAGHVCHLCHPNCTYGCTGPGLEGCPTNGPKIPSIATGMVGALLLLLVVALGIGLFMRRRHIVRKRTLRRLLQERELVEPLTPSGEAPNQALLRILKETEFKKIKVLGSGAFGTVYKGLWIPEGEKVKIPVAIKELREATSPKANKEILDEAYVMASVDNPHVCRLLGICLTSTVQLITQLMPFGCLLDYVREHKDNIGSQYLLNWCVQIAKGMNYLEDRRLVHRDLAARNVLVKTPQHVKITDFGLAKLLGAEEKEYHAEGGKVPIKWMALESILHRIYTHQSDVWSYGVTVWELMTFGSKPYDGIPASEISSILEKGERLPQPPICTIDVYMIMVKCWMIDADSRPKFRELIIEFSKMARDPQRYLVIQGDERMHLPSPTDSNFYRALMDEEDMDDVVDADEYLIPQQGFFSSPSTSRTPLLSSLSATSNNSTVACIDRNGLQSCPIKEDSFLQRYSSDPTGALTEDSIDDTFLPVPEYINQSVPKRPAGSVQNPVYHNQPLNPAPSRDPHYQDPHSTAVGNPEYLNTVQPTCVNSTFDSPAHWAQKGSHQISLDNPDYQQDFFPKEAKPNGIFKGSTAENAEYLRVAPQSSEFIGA

| IC50 (human EGFR (WT); [4]) [nM] | IC50 [1, 5] [nM] | IC50 (human EGFR (L858R/C797S); [6]) [nM] | IC50 [2, 7] [nM] | IC50 [3, 8] [nM] | IC50 (human EGFR (WT); [9]) [nM] | IC50 [1, 10] [nM] | IC50 (human EGFR (L858R/C797S); [11]) [nM] | IC50 [2, 12] [nM] | IC50 [3, 13] [nM] | Structure (SMILES) |
| --- | --- | --- | --- | --- | --- | --- | --- | --- | --- | --- |
| 0.55 | < 0.3 | 0.35 | < 0.3 | 0.42 | – | – | – | – | – | C#Cc1c(-c2cnc3ccccc3c2)c2c(N)ncnc2n1C12CCC(NC(=O)c3cnnn3C)(CC1)C2 [Example 22, N-(4-(4-Amino-6-ethynyl-5-(quinolin-3-yl)-7H-pyrrolo[2,3-d]pyrimidin-7-yl)bicyclo-[2.2.1]heptan-1-yl)-1-methyl-1H-1,2,3-triazole-5-carboxamide] |
| 11 | 1.6 | 2.4 | < 0.3 | 0.69 | – | – | – | – | – | C#Cc1c(-c2cnc3ccccc3c2)c2c(N)ncnc2n1C12CCC(N(C)C)(CC1)C2 [Example 11, 7-(4-(Dimethylamino)bicyclo[2.2.1]heptan-1-yl)-6-ethynyl-5-(quinolin-3-yl)-7H -pyrrolo[2,3-d]pyrimidine-4-amine] |
| 1.5 | 0.79 | 1 | < 0.3 | 0.52 | – | – | – | – | – | C#Cc1c(-c2cnc3ccccc3c2)c2c(N)ncnc2n1C12CCC(NC(=O)c3cnc(Cl)cn3)(CC1)C2 [Example 15] |
| – | – | – | – | – | 0.43 | < 0.3 | 0.36 | < 0.3 | < 0.3 | C#Cc1c(-c2cnc3ccccc3c2)c2c(N)ncnc2n1C12CCC(NC(=O)c3cnc(CN(C)C)cn3)(CC1)C2 [Example 68, N-(4-(4-Amino-6-ethynyl-5-(quinolin-3-yl)-7H-pyrrolo[2,3-d]pyrimidin-7-yl)bicyclo-[2.2.1]heptan-1-yl)-5-((dimethylamino)methyl)pyrazine-2-carboxamide] |
| 5.2 | 2.1 | 4.6 | < 0.3 | 0.7 | – | – | – | – | – | C#Cc1c(-c2cnc3ccccc3c2)c2c(N)ncnc2n1C12CCC(NC(=O)c3ccnn3C)(CC1)CC2 [Example 6, N-(4-(4-Amino-6-ethynyl-5-(quinoiln-3-yl)-7H-pyrrolo[2,3-d]pyrimidin-7-yl)bicyclo-[2.2.2]octan-1-yl)-1-methyl-1H-pyrazole-5-carboxamide] |
| 0.84 | 0.46 | 0.45 | < 0.3 | < 0.3 | – | – | – | – | – | C#Cc1c(-c2cnc3ccccc3c2)c2c(N)ncnc2n1C12CCC(NC(=O)c3cncc(C#N)c3)(CC1)C2 [Example 34, N-(4-(4-Amino-6-ethynyl-5-(quinolin-3-yl)-7H-pyrrolo[2,3-d]pyrimidin-7-yl)-bicyclo-[2.2.1]heptan-1-yl)-5-cyanonicotinamide] |
| – | – | – | – | – | 0.41 | 0.86 | 0.32 | < 0.3 | < 0.3 | C#Cc1c(-c2cnc3ccccc3c2)c2c(N)ncnc2n1C12CCC(NC(=O)c3cnc4ccccn34)(CC1)C2 [Example 64, N-(4-(4-Amino-6-ethynyl-5-(quinolin-3-yl)-7H-pyrrolo[2,3-d]pyrimidin-7-yl)bicyclo-[2.2.1]heptan-1-yl)imidazo[1,2-a]pyridine-3-carboxamide] |
| – | – | – | – | – | 0.74 | < 0.3 | 0.59 | < 0.3 | < 0.3 | C#Cc1c(-c2cnc3ccccc3c2)c2c(N)ncnc2n1C12CCC(NC(=O)c3cnc(CN4CCOCC4)cn3)(CC1)C2 [Example 69, N-(4-(4-Amino-6-ethynyl-5-(quinolin-3-yl)-7H-pyrrolo[2,3-d]pyrimidin-7-yl)bicyclo-[2.2.1]heptan-1-yl)-5-(morpholinomethyl)pyrazine-2-carboxamide] |
| 2.1 | 2.4 | 3.8 | < 0.3 | 0.39 | – | – | – | – | – | C#Cc1c(-c2cnc3ccccc3c2)c2c(N)ncnc2n1C12CCC(NC(=O)OCC)(CC1)C2 [Example 12, Ethyl (4-(4-amino-6-ethynyl-5-(quinolin-3-yl)-7H-pyrrolo[2,3-d]pyrimidin-7-yl) -bicyclo[2.2.1]heptan-1-yl)carbamate] |
| – | – | – | – | – | < 0.3 | 0.4 | < 0.3 | < 0.3 | < 0.3 | C#Cc1c(-c2cnc3ccccc3c2)c2c(N)ncnc2n1C12CCC(NC(=O)c3cnc4cnccn34)(CC1)C2 [Example 65] |
